The record followed here is PubChem BioAssay (NCI).

Common to all, as to experiment: NCI-60 cell line screen, 48 h
Test [1] deals with CCRF-CEM leukemia.
Test [2] has as its system COLO 205 colon.
For test [3], the system named is HCT-15 colon.
The subject of test [4] is HL-60(TB) leukemia.
Test [5] concerns IGROV1 ovarian.
Test [6] concerns LOX IMVI melanoma.
Test [7] has as its system M14 melanoma.
In test [8] the test system is M19-MEL melanoma.
Test [9] concerns MOLT-4 leukemia.
Test [10] deals with OVCAR-3 ovarian.
In test [11] the test system is OVCAR-8 ovarian.
The subject of test [12] is RPMI-8226 leukemia.
Test [13] deals with SK-MEL-5 melanoma.
The test system of test [14] is SN12C renal.
In test [15] the test system is TK-10 renal.
Test [16] concerns U251 CNS.
Test [17] concerns UACC-257 melanoma.
The subject of test [18] is SNB-19 CNS.
In test [19] the test system is MCF7 breast.
In test [20] the test system is MDA-MB-435.

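Following 48 hours of exposure in 96-well plates, responses at five concentrations were used to interpolate endpoints linearly. TGI: concentration producing complete growth inhibition.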

With `CC1(C)CC(=O)CC(=Nc2ccc([N+](=O)[O-])cc2)C1`, the TGI is 60.8 µM in [1]; over 100 µM in test [2]; over 100 µM in test [3]; over 100 µM in test [4]; over 100 µM in test [5]; 38.8 µM in [6]. Further, the TGI in test [7], in test [8], in test [9], in test [10], in test [11] and in test [12] was over 100 µM in each case. Also, the TGI in test [13] was over 100 µM; in [14] it was over 100 µM; in test [15], over 100 µM; in test [16] it was 31.7 µM; in [17] it was over 100 µM.

On to `Cc1ccc(NC(=O)CCc2nnc(N)o2)cc1`, for which the TGI is over 100 µM in test [1]; over 100 µM in test [2]; over 100 µM in test [3]; over 91.7 µM in test [4]; over 100 µM in test [5]; over 100 µM in test [6]. In addition, the TGI in test [7], in [8], in test [9], in [10], in [11] and in test [12] was over 100 µM throughout. The TGI in test [13], in [14], in [18], in test [15], in test [16] and in test [17] was over 100 µM each time.

For `Cc1nn(C(=O)CC(=O)Nc2ccc(Cl)cc2)c(C)c1N=Nc1ccccc1C(=O)O`, the TGI in test [1], in test [2], in test [3], in [4], in test [5] and in test [6] was over 100 µM each time. The TGI in test [7], in [8], in test [9], in test [10], in test [11] and in [12] was over 100 µM in each case. The TGI in test [13], in test [14], in test [18], in test [15], in [16] and in [17] was over 100 µM throughout.

Take `CN(CCN(C)C(=O)CCn1cc(F)c(=O)[nH]c1=O)C(=O)CCn1cc(F)c(=O)[nH]c1=O`: the TGI in test [1], in test [2], in [3], in test [4], in test [5] and in [6] was over 100 µM throughout. Further, the TGI in test [7], in test [8], in test [9], in [10], in test [11] and in test [12] was over 100 µM in each case. The TGI in test [13], in test [14], in test [18], in test [15] and in test [16] was over 100 µM throughout.

Consider `Cn1c2ccccc2c2ncc3[nH]c4ccccc4c3c21`, for which the TGI is over 100 µM in test [1]; 39.1 µM in test [2]; 63.7 µM in [3]; 41.3 µM in [4]; 58.2 µM in test [5]; 56.2 µM in test [6]. For the same molecule, the TGI was 35.2 µM in test [7]; 49.1 µM in test [8]; 67.4 µM in test [9]; 31.6 µM in test [10]; 52.7 µM in [11]; 63 µM in [12]. Moreover, the TGI in test [13] was 40 µM; in test [14], 73.2 µM; in [18] it was over 100 µM; in test [15], 45.1 µM; in test [16], 39.9 µM; in test [17], 42.6 µM.

`CCOC1c2cc(C(C)C)c(O)c(O)c2[C@@]23CCCC(C)(C)C2C1OC3=O` (stereo not given in full): the TGI in test [1], in test [2], in [3], in test [4], in test [5] and in [6] was over 100 µM in each case. Besides, the TGI in test [7], in [8], in [9], in [10], in test [11] and in test [12] was over 100 µM each time. The TGI in test [13], in test [14], in test [18], in test [15], in test [16] and in test [17] was over 100 µM throughout.

Consider `COc1ccc(C(C#N)NNC(=O)Cc2ccccc2)cc1OC` (stereo not given), for which the TGI in [1], in [2], in [3], in test [4], in test [5] and in [6] was over 100 µM throughout. For the same molecule, the TGI in test [7], in test [8], in test [9], in [11], in test [12] and in [13] was over 100 µM each time. Further, the TGI in test [14], in test [15], in test [16] and in test [17] was over 100 µM throughout.

For the molecule `COc1ccc(/C=C(\C(C)=O)C(=O)Nc2ccccc2)cc1`, the TGI in test [1], in [3], in test [4], in [5], in [6] and in test [7] was over 100 µM each time. Further, the TGI in test [8], in [9], in [10], in test [11], in test [12] and in [13] was over 100 µM in each case. For the same molecule, the TGI in [14], in test [18], in [15], in test [16] and in [17] was over 100 µM each time.

On to `CCOC(=O)/C(=C/c1ccc(N(C)C)cc1)N(CC)CC`, for which the TGI is 91.9 µM in [1]; over 100 µM in [2]; over 100 µM in test [3]; 81 µM in test [4]; over 100 µM in test [5]; 78.5 µM in [6]. Further, the TGI in [7] is over 100 µM; in test [8] it was 60.1 µM; in [9], over 100 µM; in test [10] it was over 100 µM; in test [11] it was over 100 µM; in test [12] it was 89 µM. Further, the TGI in test [14], in test [18], in [15], in test [16] and in [17] was over 100 µM each time.

In the case of `COc1cc2c3c(c1OC)-c1cc4c(cc1CC3(C#N)N(C(=O)c1ccccc1)CC2)OCO4` (stereo not given), the TGI in [1] was over 100 µM; in test [2], over 100 µM; in test [3], over 100 µM; in test [4], over 100 µM; in test [5] it was over 82.3 µM; in test [6] it was over 93.6 µM. Further, the TGI in test [7] is over 100 µM; in test [8], over 100 µM; in [19] it was over 100 µM; in test [20], over 100 µM; in [9] it was over 100 µM; in test [10], over 86.6 µM. The TGI in test [11] was over 74.2 µM; in test [12], over 100 µM; in test [13], over 100 µM; in test [14], over 100 µM; in [18], 46 µM; in [15] it was 71 µM. Besides, the TGI in test [16] is 53.5 µM; in test [17] it was over 100 µM.

Consider `COC(=O)[C@@]1(C)/C(=N/NS(=O)(=O)c2ccc(C)cc2)CCC[C@@H]1C`, for which the TGI is over 100 µM in [1]; over 100 µM in test [2]; 31.9 µM in test [3]; over 100 µM in test [4]; over 100 µM in [5]; 27.5 µM in test [6]. Also, the TGI was over 100 µM in test [7]; over 100 µM in test [8]; over 100 µM in test [9]; over 100 µM in test [10]; over 100 µM in [11]; 72.6 µM in [12]. The TGI in [13], in [14], in test [18], in test [15], in [16] and in [17] was over 100 µM each time.

Take `CC(C)=CC1CC(=[N+]=[N-])C(=O)C1(C)C` (stereo not given): the TGI is over 83.7 µM in test [1]; over 100 µM in test [2]; over 100 µM in test [3]; over 100 µM in test [4]; over 100 µM in test [5]; over 100 µM in test [6]. Besides, the TGI in test [7] is over 100 µM; in test [8], over 100 µM; in test [9], over 100 µM; in test [10], over 100 µM; in test [11] it was over 100 µM; in test [12], over 74.6 µM. The TGI in test [13], in test [14], in [18], in test [15], in [16] and in test [17] was over 100 µM each time.

In the case of `COc1ccc(OC)c(/C=C(/C#N)c2ccccc2)c1`, the TGI was 62.1 µM in test [1]; over 100 µM in test [2]; over 100 µM in test [3]; 19.6 µM in test [4]; over 100 µM in [5]; over 100 µM in [6]. The TGI in test [7] was over 100 µM; in test [8], over 100 µM; in [9], 57.7 µM; in test [10], 88.2 µM; in test [11], over 100 µM; in test [12], 60.6 µM. Also, the TGI in test [13] was 94.5 µM; in test [14], over 100 µM; in test [18], over 100 µM; in test [15] it was over 100 µM; in test [16], over 100 µM.

For the molecule `O=C(CSc1c2ccccc2nc2ccccc12)Nc1ccccc1-c1ccccc1NC(=O)CSc1c2ccccc2nc2ccccc12`, the TGI was over 78.7 µM in test [1]; over 75 µM in [2]; 66.6 µM in [3]; 18.7 µM in [4]; 42.8 µM in test [5]; 39.1 µM in test [6]. In addition, the TGI is over 73.9 µM in [7]; 61.1 µM in test [8]; over 54.4 µM in test [9]; 31 µM in test [10]; over 86.8 µM in [11]; 30.4 µM in test [12]. Further, the TGI is 28.3 µM in test [13]; over 83.5 µM in test [14]; over 61.7 µM in test [18]; over 100 µM in [15]; over 100 µM in [16]; 75.8 µM in test [17].

As to `C=CCC1(CN(C)C)CC/C(=C\c2ccc(Cl)cc2)C1=O` (stereo not given), the TGI in test [1] is 24 µM; in [2], over 59.8 µM; in test [3], 58.4 µM; in test [4] it was 74.4 µM; in [5] it was over 31.6 µM; in test [6], 52 µM. For the same molecule, the TGI is over 64.9 µM in [7]; over 92.7 µM in [8]; 53 µM in test [9]; over 100 µM in [10]; over 100 µM in test [11]; 53.6 µM in test [12]. Besides, the TGI in test [13] was over 79.1 µM; in test [14] it was over 100 µM; in test [18] it was over 100 µM; in test [15], over 100 µM; in test [16] it was over 100 µM; in test [17], 54.1 µM.
